Data on 21 compounds can be found in patent publication US20240254129A1, “HETEROCYCLIC COMPOUNDS AND USES THEREOF” (Kumquat Biosciences Inc., priority 2021, published 2024).

Structures are written as SMILES. Read-outs that look alike come from different tables or passages of the source.

In test [1] the target is GST-tagged K-Ras mutant / His-tagged hSOS1 (Homo sapiens, UniProt P01116). Description: HTRF assay, K-Ras mutant / SOS1 interaction. The class given is binding. Conditions: read-out: IC50 against mutant Kras. In outline:
(§1)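 Tagged proteins: GST-K-Ras (wt or mutant), His-hSOS1; labels anti-GST-Eu/anti-6His-XL665; HEPES pH 7.4 buffer with DTT, BSA, Igepal. Read ≥10 min post-mix at ex 337 nm; IC50 from ratiometric data, duplicates.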

For another test, the target named is T1, wildtype Kras / hSOS1 (Homo sapiens, UniProt P01116).
T1 construct: made in house; host or cells: E. coli BL21 (DE3)
T1 sequence (P01116 1-188 isoform P01116-2): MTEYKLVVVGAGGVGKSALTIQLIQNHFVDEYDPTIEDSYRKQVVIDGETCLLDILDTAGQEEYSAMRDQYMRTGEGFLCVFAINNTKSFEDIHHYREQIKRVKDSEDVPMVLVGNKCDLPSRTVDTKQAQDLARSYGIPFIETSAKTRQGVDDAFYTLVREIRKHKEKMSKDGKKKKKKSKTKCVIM
Description: HTRF assay, wildtype Kras / SOS1 interaction. It counts as binding. Conditions: read-out: IC50 against wildtype Kras. A digest of the protocol:
as §1
A general note: TR-FRET usually uses a lanthanide donor and a delayed reading to cut background.

The mark [2] stands for this setting: compound nos. 201-213, general methodology of example 5.
Where [3] appears, read: compound nos. 102-196, general methodology of example 5.

Chain of GST-tagged K-Ras mutant / His-tagged hSOS1 (P01116 whole entry G12D, form open): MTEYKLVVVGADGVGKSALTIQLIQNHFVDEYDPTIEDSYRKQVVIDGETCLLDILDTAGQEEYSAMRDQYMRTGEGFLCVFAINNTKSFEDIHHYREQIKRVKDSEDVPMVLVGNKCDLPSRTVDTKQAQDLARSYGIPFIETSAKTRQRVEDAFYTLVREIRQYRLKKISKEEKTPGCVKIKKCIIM

As for `Nc1nc2c(-c3c(Cl)cc4c(N5CC6CCC(C5)NC6)nc(OC[C@@]56CCCN5C[C@H](F)C6)nc4c3F)ccc(F)c2s1` (stereo partly drawn) [Compound 213, 4-(4-(3,6-diazabicyclo-[3.2.2]nonan-3-yl)-6-chloro-8-fluoro-2-(((2R,7aS)-2-fluorotetrahydro-1H-pyrrolizin-7a(5H)-yl)meth-oxy)quinazolin-7-yl)-7-fluorobenzo[d]thiazol-2-amine], the concentration for half-maximal inhibition (IC50) (in test [1] (setting [2]); on wildtype Kras / hSOS1 (setting [2])) was under 1500 nM throughout.

Turning to `Nc1nc2c(-c3c(Cl)cc4c(N5CCNCC(F)(F)C5)nc(OCC56CCCN5CCC6)nc4c3F)cccc2s1` [Compound 105, 4-(6-chloro-4-(6,6-difluoro-1,4-diazepan-1-yl)-8-fluoro-2-((tetrahydro-1H-pyrrol-izin-7a(5H)-yl)methoxy)-quinazolin-7-yl)benzo[d]-thiazol-2-amine], the IC50 (in test [1] (setting [3]); on wildtype Kras / hSOS1 (setting [3])) was under 500 nM throughout.

Regarding `CN(CCC1CCC[N+]1(C)C)c1nc(N2CC3CCC(C2)N3)c2ccc(-c3ccc(F)c4sc(N)nc34)nc2n1` (stereo not drawn) [Compound 647, 4-(4-(3,8-diazabicyclo-[3.2.1]octan-3-yl)-2-((2-(1,1-dimethyl-114-pyrrol-idin-2-yl)ethyl)(methyl)-amino)pyrido[2,3-d]pyr-imidin-7-yl)-7-fluoroben-zo[d]thiazol-2-amine], the IC50 (in test [1] (compound nos. 401-703); on wildtype Kras / hSOS1 (compound nos. 401-703)) was over 500 nM each time.

For `Oc1cc(-c2c(F)cc3c(N4CC5CCC(C4)N5)nc(OCC45CCCN4CCC5)nc3c2F)c2ccccc2c1` [Compound 669, 4-(4-(3,8-diazabicyclo-[3.2.1]octan-3-yl)-6,8-difluoro-2-((tetrahydro-1H-pyrrolizin-7a(5H)-yl)methoxy)quinazolin-7-yl)naphthalen-2-ol], the results for the IC50 (in test [1] (compound nos. 401-703); at wildtype Kras / hSOS1 (compound nos. 401-703)) were under 500 nM and over 500 nM, respectively.

Regarding `N#CCCc1cc2c(N3CC4CCC(C3)N4)nc(OC[C@@]34CCCN3C[C@H](F)C4)nc2c(F)c1-c1cccc2ccc(F)c(Cl)c12` [Compound 451, 3-(4-(3,8-diazabicyclo-[3.2.1]octan-3-yl)-7-(8-chloro-7-fluoronaphthalen-1-yl)-8-fluoro-2-(((2R,7aS)-2-fluorotetrahydro-1H-pyrrolizin-7a(5H)-yl)meth-oxy)quinazolin-6-yl)pro-panenitrile], the IC50 (as a rule, the point on the concentration scale where inhibition reaches its midpoint) in test [1] (compound nos. 401-703) was over 500 nM; on wildtype Kras / hSOS1 (compound nos. 401-703), under 500 nM.

In the case of `Nc1nc2c(-c3c(Cl)cc4c(N5CCOCC(F)(F)C5)nc(OCC56CCCN5CCC6)nc4c3F)cccc2s1` [Compound 114, 4-(6-chloro-4-(6,6-difluoro-1,4-oxazepan-4-yl)-8-fluoro-2-((tetrahydro-1H-pyrrolizin-7a(5H)-yl)methoxy)quin-azolin-7-yl)benzo[d]thiazol-2-amine], the IC50 (in test [1] (setting [3]); at wildtype Kras / hSOS1 (setting [3])) was under 500 nM each time.

Turning to `CO[C@@H]1CN(C)C[C@H]1Oc1nc(N2CC3CCC(C2)N3)c2cc(Cl)c(-c3ccc(F)c4sc(N)nc34)c(F)c2n1` [Compound 448, 4-(4-(3,8-diazabicyclo-[3.2.1]-octan-3-yl)-6-chloro-8-fluoro-2-(((3R,4R)-4-methoxy-1-methylpyrrolidin-3-yl)oxy)quinazolin-7-yl)-7-fluorobenzo[d]thiazol-2-amine], the IC50 (in test [1] (compound nos. 401-703); at wildtype Kras / hSOS1 (compound nos. 401-703)) was under 500 nM throughout.

As to `Fc1c(N2CCCc3cccc(Cl)c32)cc(Cl)c2c(N3CCCCCC3)nc(OCC34CCCN3CCC4)nc12` [Compound 467, 4-(azepan-1-yl)-5-chloro-7-(8-chloro-3,4-dihydroquin-olin-1(2H)-yl)-8-fluoro-2-((tetrahydro-1H-pyrrolizin-7a(5H)-yl)methoxy)quin-azoline], the IC50 in test [1] (compound nos. 401-703) was over 500 nM; on wildtype Kras / hSOS1 (compound nos. 401-703), under 500 nM.

Regarding `CN1CCC[C@H]1COc1nc(N2CC3CNC(C3)C2)c2cc(Cl)c(-c3cccc4sc(N)nc34)c(F)c2n1` (stereo partly drawn) [Compound 137, 4-(4-(3,6-diazabicyclo-[3.2.1]octan-3-yl)-6-chloro-8-fluoro-2-(((S)-1-methyl-pyrrolidin-2-yl)methoxy)-quinazolin-7-yl)benzo[d]-thiazol-2-amine], the IC50 (in test [1] (setting [3]); on wildtype Kras / hSOS1 (setting [3])) was over 500 nM each time.

`Nc1nc2c(-c3c(Cl)cc4c(N5CC6CNCC6C5)nc(OC[C@@]56CCCN5C[C@H](F)C6)nc4c3F)ccc(F)c2s1` (stereo partly drawn) [Compound 569, 4-(6-chloro-8-fluoro-2-(((2R,7aS)-2-fluorotetra-hydro-1H-pyrrolizin-7a(5H)-yl)methoxy)-4-(hexahydro-pyrrolo[3,4-c]pyrrol-2(1H)-yl)quinazolin-7-yl)-7-fluoro-benzo[d]thiazol-2-amine]: the IC50 in test [1] (compound nos. 401-703) is under 500 nM; on wildtype Kras / hSOS1 (compound nos. 401-703), over 500 nM.

For `Nc1ccc2cccc(-c3c(Cl)cc4c(N5CC6CCC(C5)N6)nc(OCC56CCCN5CCC6)nc4c3F)c2n1` [Compound 597, 8-(4-(3,8-diazabicyclo-[3.2.1]octan-3-yl)-6-chloro-8-fluoro-2-((tetrahydro-1H-pyrrolizin-7a(5H)-yl)meth-oxy)quinazolin-7-yl)quin-olin-2-amine], the IC50 (in test [1] (compound nos. 401-703); on wildtype Kras / hSOS1 (compound nos. 401-703)) was over 500 nM throughout.

As for `CN1CCC[C@H]1COc1nc(N2CC3CNCC3C2)c2cc(Cl)c(-c3cccc4sc(N)nc34)c(F)c2n1` (stereo partly drawn) [Compound 144, 4-(6-chloro-8-fluoro-4-(hexahydropyrrolo[3,4-c]-pyrrol-2(1H)-yl)-2-(((S)-1-methylpyrrolidin-2-yl)meth-oxy)quinazolin-7-yl)benzo-[d]thiazol-2-amine], the IC50 (in test [1] (setting [3]); on wildtype Kras / hSOS1 (setting [3])) was over 500 nM throughout.

Turning to `CN1CCC[C@H]1COc1nc(N2CCNCC(O)C2)c2cc(Cl)c(-c3cccc4sc(N)nc34)c(F)c2n1` (stereo partly drawn) [Compound 103, 1-(7-(2-aminobenzo[d]-thiazol-4-yl)-6-chloro-8-fluoro-2-(((S)-1-methyl-pyrrolidin-2-yl)methoxy)-quinazolin-4-yl)-1,4-diazepan-6-ol], the IC50 (in test [1] (setting [3]); on wildtype Kras / hSOS1 (setting [3])) was under 500 nM throughout.

For `Cc1ccc2[nH]nc(C#N)c2c1-c1ccc2c(N3CC4CCC(C3)N4)nc(OC[C@@]34CCCN3C[C@H](F)C4)nc2c1F` [Compound 561, 4-(4-(3,8-diazabicyclo-[3.2.1]octan-3-yl)-8-fluoro-2-(((2R,7aS)-2-fluorotetra-hydro-1H-pyrrolizin-7a(5H)-yl)methoxy)quinazolin-7-yl)-5-methyl-1H-indazole-3-carbonitrile], the half-inhibitory concentration (IC50) (in test [1] (compound nos. 401-703); at wildtype Kras / hSOS1 (compound nos. 401-703)) was over 500 nM in each case.

For the compound `Cc1ccnc(C(C)C)c1-n1c(=O)nc(N2CCNCC(F)(F)C2)c2cc(F)c(-c3c(O)cccc3F)nc21` [Compound 195, 4-(6,6-difluoro-1,4-diazepan-1-yl)-6-fluoro-7-(2-fluoro-6-hydroxyphenyl)-1-(2-isopropyl-4-methylpyridin-3-yl)pyrido[2,3-d]pyrimidin-2(1H)-one], the IC50 (in test [1] (setting [3]); at wildtype Kras / hSOS1 (setting [3])) was over 500 nM each time.

For `Oc1cc(-c2c(Cl)cc3c(N4CC5CCC(C4)N5)nc(OCC45CCCC4CCC5)nc3c2F)c2ccccc2c1` (stereo not drawn) [Compound 410, 4-(4-(3,8-diazabicyclo-[3.2.1]octan-3-yl)-6-chloro-8-fluoro-2-((hexahydro-pentalen-3a(1H)-yl)meth-oxy)quinazolin-7-yl)naph-thalen-2-ol], the IC50 in test [1] (compound nos. 401-703) was over 500 nM; at wildtype Kras / hSOS1 (compound nos. 401-703), under 500 nM.

Regarding `Oc1cc(-c2ccc3c(N4CC5CCC(C4)N5)nc(OC[C@@]45CCCN4C[C@H](F)C5)nc3c2F)c2ccccc2c1` [Compound 209, 4-(4-((1R,5S)-3,8-diaza-bicyclo[3.2.1]octan-3-yl)-8-fluoro-2-(((2R,7aS)-2-fluoro-tetrahydro-1H-pyrrolizin-7a(5H)-yl)methoxy)quin-azolin-7-yl)naphthalen-2-ol], the IC50 (in test [1] (setting [2]); at wildtype Kras / hSOS1 (setting [2])) was under 1500 nM each time.

Take `Nc1nc2c(-c3c(Cl)cc4c(N5CC6CCC(C5)O6)nc(OC[C@@]56CCCN5C[C@H](F)C6)nc4c3F)ccc(F)c2s1` [Compound 203, 4-(4-(8-oxa-3-azabicyclo[3.2.1]octan-3-yl)-6-chloro-8-fluoro-2-(((2R,7aS)-2-fluorohexahydro-1H-pyrrolizin-7a-yl)methoxy)quinazolin-7-yl)-7-fluorobenzo[d]thiazol-2-amine]: the IC50 (in test [1] (setting [2]); at wildtype Kras / hSOS1 (setting [2])) was under 1500 nM in each case.

Turning to `Nc1nc2c(-c3c(Cl)cc4c(N5CCCCCC5)nc(OC[C@@]56CCCN5C[C@H](F)C6)nc4c3F)ccc(F)c2s1` [Compound 499, 4-(4-(azepan-1-yl)-6-chloro-8-fluoro-2-(((2R,7aS)-2-fluorotetrahydro-1H-pyrrol-izin-7a(5H)-yl)methoxy)-quinazolin-7-yl)-7-fluoro-benzo[d]thiazol-2-amine], the IC50 (in test [1] (compound nos. 401-703); on wildtype Kras / hSOS1 (compound nos. 401-703)) was under 500 nM in each case.

`CN1C[C@H](F)C[C@H]1COc1nc(N2CCNCC(F)(F)C2)c2cc(Cl)c(-c3cccc4sc(N)nc34)c(F)c2n1` [Compound 146, 4-(6-chloro-4-(6,6-difluoro-1,4-diazepan-1-yl)-8-fluoro-2-(((2S,4R)-4-fluoro-1-methylpyrrolidin-2-yl)meth-oxy)quinazolin-7-yl)benzo-[d]thiazol-2-amine]: the IC50 (in test [1] (setting [3]); on wildtype Kras / hSOS1 (setting [3])) was under 500 nM in each case.

As for `CN1CCC[C@H]1COc1nc2c(c(N3CCNCC(F)(F)C3)n1)CCN(c1cc(O)cc3ccccc13)C2` [Compound 419, (S)-4-(4-(6,6-difluoro-1,4-diazepan-1-yl)-2-((1-methylpyrrolidin-2-yl)methoxy)-5,8-dihydropyrido[3,4-d]pyrimidin-7(6H)-yl)naphthalen-2-ol], the IC50 (in test [1] (compound nos. 401-703); on wildtype Kras / hSOS1 (compound nos. 401-703)) was under 500 nM each time.
